Tests used:
GST-Bcl-XL = GST-Bcl-XL (Homo sapiens, UniProt Q07817); test: TR-FRET binding assay, GST-Bcl-XL with F-Bak peptide probe; settings: TR-FRET Binding Affinity
Procedure: (§1) Tb-anti-GST antibody was purchased from Invitrogen (Catalog No. PV4216).
(§2) Representative compounds were serially diluted in dimethyl sulfoxide (DMSO) starting at 50 μM (2× starting concentration; 10% DMSO) and 10 μL were transferred into a 384-well plate.
(§3) The samples were then mixed on a shaker for 1 minute and incubated for an additional 3 hours at room temperature. For each assay, the probe/antibody and protein/probe/antibody were included on each assay plate as negative and positive controls, respectively. Fluorescence was measured on the ENVISION plate reader (Perkin Elmer) using a 340/35 nm excitation filter and 520/525 (F-Bak peptide) and 495/510 nm (Tb-labeled […] antibody) emission filters.
(§4) The inhibition constant (Ki) is the dissociation constant of an enzyme-inhibitor complex or a protein/small molecule complex, wherein the small molecule is inhibiting binding of one protein to another protein or peptide. […] Inhibition constants were determined using Wang's equation (Wang Z-X., An Exact Mathematical Expression For Describing Competitive Binding Of Two Different Ligands To A Protein Molecule. FEBS Lett. 1995, 360:111-4).

GST-Bcl-2 = GST-Bcl-2 (Homo sapiens, UniProt P10415); test: TR-FRET binding assay, GST-Bcl-2 with F-Bak peptide probe; settings: for Ki: TR-FRET Binding Affinity; for Binding selectivity ratio (Bcl-XL Ki/Bcl-2 Ki): TR-FRET, Bcl-XL Ki divided by Bcl-2 Ki
Procedure: as §1, §2, §3, §4

[1] = GST-Bcl-XL, F-Bak peptide probe

GST-Bcl-2, sequence (P10415 whole entry): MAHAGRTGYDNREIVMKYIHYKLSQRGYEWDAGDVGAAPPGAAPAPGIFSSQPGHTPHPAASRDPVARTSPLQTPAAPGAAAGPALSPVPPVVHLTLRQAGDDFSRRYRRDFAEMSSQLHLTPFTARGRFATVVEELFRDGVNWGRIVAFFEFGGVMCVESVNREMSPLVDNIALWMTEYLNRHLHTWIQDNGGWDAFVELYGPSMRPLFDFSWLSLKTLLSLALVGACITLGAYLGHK
GST-Bcl-XL, sequence (Q07817 whole entry): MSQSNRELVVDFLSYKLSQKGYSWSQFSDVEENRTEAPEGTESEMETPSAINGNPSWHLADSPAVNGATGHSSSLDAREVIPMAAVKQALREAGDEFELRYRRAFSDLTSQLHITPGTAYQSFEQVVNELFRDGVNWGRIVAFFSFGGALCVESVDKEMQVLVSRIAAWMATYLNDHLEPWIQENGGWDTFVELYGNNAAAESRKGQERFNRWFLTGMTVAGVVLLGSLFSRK

CC1(C)CCC(CN2CCN(c3ccc(C(=O)NS(=O)(=O)c4ccc(OCC5CCC(C)(O)CC5)c([N+](=O)[O-])c4)c(Oc4cccc5[nH]ncc45)c3)CC2)=C(c2ccc(Cl)cc2)C1 (stereo not drawn) [Example 532, 4-(4-{[2-(4-chlorophenyl)-4,4-dimethylcyclohex-1-en-1-yl]methyl}piperazin-1-yl)-N-({4-[(cis-4-hydroxy-4-methylcyclohexyl)methoxy]-3-nitrophenyl}sulfonyl)-2-(1H-indazol-4-yloxy)benzamide]
Ki (GST-Bcl-XL): 9.81 nM
Ki (GST-Bcl-2): < 0.01 nM
Binding selectivity ratio (Bcl-XL Ki/Bcl-2 Ki) (GST-Bcl-2): >981.2

CC1(C)CCC(CN2CCN(c3ccc(C(=O)NS(=O)(=O)c4ccc(N[C@@H]5CCN(C(CF)CF)C5)c([N+](=O)[O-])c4)c(Oc4cccc5[nH]ncc45)c3)CC2)=C(c2ccc(Cl)cc2)C1 [Example 435, 4-(4-{[2-(4-chlorophenyl)-4,4-dimethylcyclohex-1-en-1-yl]methyl}piperazin-1-yl)-N-{[4-({(3R)-1-[2-fluoro-1-(fluoromethyl)ethyl]pyrrolidin-3-yl}amino)-3-nitrophenyl]sulfonyl}-2-(1H-indazol-4-yloxy)benzamide]
Ki (GST-Bcl-XL; [1]): 32.9 nM
Ki (GST-Bcl-2; GST-Bcl-2, F-Bak peptide probe): 0.017 nM

CC1(C)CCC(CN2CCN(c3ccc(C(=O)NS(=O)(=O)c4cnc(OC[C@@H]5C[C@H]6C[C@@H]5C[C@@]6(C)O)c(Cl)c4)c(Oc4cccc5[nH]ncc45)c3)CC2)=C(c2ccc(Cl)cc2)C1 [Example 520, N-[(5-chloro-6-{[(1R,2R,4R,5R)-5-hydroxy-5-methylbicyclo[2.2.1]hept-2-yl]methoxy}pyridin-3-yl)sulfonyl]-4-(4-{[2-(4-chlorophenyl)-4,4-dimethylcyclohex-1-en-1-yl]methyl}piperazin-1-yl)-2-(1H-indazol-4-yloxy)benzamide]
Ki (GST-Bcl-XL): 15.4 nM
Ki (GST-Bcl-2): < 0.01 nM
Binding selectivity ratio (Bcl-XL Ki/Bcl-2 Ki) (GST-Bcl-2): >1537.8

O=C(NS(=O)(=O)c1ccc(NCCc2ccncc2)c([N+](=O)[O-])c1)c1ccc(N2CCN(Cc3ccccc3-c3ccc(Cl)cc3)CC2)cc1Oc1ccccc1 [Example 169, 4-{4-[(4′-chloro-1,1′-biphenyl-2-yl)methyl]piperazin-1-yl}-N-({3-nitro-4-[(2-pyridin-4-ylethyl)amino]phenyl}sulfonyl)-2-phenoxybenzamide]
Ki (GST-Bcl-XL; [1]): 88.6 nM
Ki (GST-Bcl-2; GST-Bcl-2, F-Bak peptide probe): 0.97 nM

O=C(NS(=O)(=O)c1ccc(NCCCN2CCOCC2)cc1)c1ccc(N2CCN(Cc3ccccc3-c3ccc(Cl)cc3)CC2)cc1Oc1ccccc1 [Example 78, 4-{4-[(4′-chloro-1,1′-biphenyl-2-yl)methyl]piperazin-1-yl}-N-({4-[(3-morpholin-4-ylpropyl)amino]phenyl}sulfonyl)-2-phenoxybenzamide]
Ki (GST-Bcl-XL; [1]): > 660 nM
Ki (GST-Bcl-2; GST-Bcl-2, F-Bak peptide probe): 113 nM

O=C(NS(=O)(=O)c1ccc(NCCCN2CCOCC2)c([N+](=O)[O-])c1)c1ccc(N2CCN(Cc3ccccc3-c3ccc(Cl)cc3)CC2)cc1Oc1ccc2[nH]ccc2c1 [Example 59, 4-{4-[(4′-chloro-1,1′-biphenyl-2-yl)methyl]piperazin-1-yl}-2-(1H-indol-5-yloxy)-N-({4-[(3-morpholin-4-ylpropyl)amino]-3-nitrophenyl}sulfonyl)benzamide]
Ki (GST-Bcl-XL; [1]): 1260 nM

COC1(C)CCC(c2ccc(Cl)cc2)=C(CN2CCN(c3ccc(C(=O)NS(=O)(=O)c4cnc(OCC5CCC(C)(O)CC5)c(Cl)c4)c(Oc4cccc5[nH]ncc45)c3)CC2)C1 (stereo not drawn) [Example 553, N-({5-chloro-6-[(trans-4-hydroxy-4-methylcyclohexyl)methoxy]pyridin-3-yl}sulfonyl)-4-(4-{[2-(4-chlorophenyl)-5-methoxy-5-methylcyclohex-1-en-1-yl]methyl}piperazin-1-yl)-2-(1H-indazol-4-yloxy)benzamide]
Ki (GST-Bcl-2): < 0.01 nM

CC1(C)CCC(CN2CCN(c3ccc(C(=O)NS(=O)(=O)c4cnc(OCC5(F)CCC(C#N)CC5)c(Cl)c4)c(Oc4cccc5[nH]ncc45)c3)CC2)=C(c2ccc(Cl)cc2)C1 (stereo not drawn) [Example 549, N-({5-chloro-6-[(cis-4-cyano-1-fluorocyclohexyl)methoxy]pyridin-3-yl}sulfonyl)-4-(4-{[2-(4-chlorophenyl)-4,4-dimethylcyclohex-1-en-1-yl]methyl}piperazin-1-yl)-2-(1H-indazol-4-yloxy)benzamide]
Ki (GST-Bcl-2): < 0.01 nM

CC1(C)CCC(CN2CCN(c3ccc(C(=O)NS(=O)(=O)c4cnc(OCC5CCC(C)(O)CC5)c(C#N)c4)c(Oc4cccc5[nH]ncc45)c3)CC2)=C(c2ccc(Cl)cc2)C1 (stereo not drawn) [Example 544, 4-(4-{[2-(4-chlorophenyl)-4,4-dimethylcyclohex-1-en-1-yl]methyl}piperazin-1-yl)-N-({5-cyano-6-[(trans-4-hydroxy-4-methylcyclohexyl)methoxy]pyridin-3-yl}sulfonyl)-2-(1H-indazol-4-yloxy)benzamide]
Ki (GST-Bcl-2): < 0.01 nM

CC1(C)CCC(CN2CCN(c3ccc(C(=O)NS(=O)(=O)c4ccc(NC[C@H]5CN(C6COC6)CCO5)c([N+](=O)[O-])c4)c(Oc4cccc5[nH]cnc45)c3)CC2)=C(c2ccc(Cl)cc2)C1 [Example 541, 2-(1H-benzimidazol-4-yloxy)-4-(4-{[2-(4-chlorophenyl)-4,4-dimethylcyclohex-1-en-1-yl]methyl}piperazin-1-yl)-N-{[3-nitro-4-({[(2S)-4-(oxetan-3-yl)morpholin-2-yl]methyl}amino)phenyl]sulfonyl}benzamide]
Ki (GST-Bcl-2): 0.167 nM

CC1(C)CCC(CN2CCN(c3ccc(C(=O)NS(=O)(=O)c4cnc(NCC5CCC(C)(O)CC5)c([N+](=O)[O-])c4)c(Oc4cccc5[nH]ncc45)c3)CC2)=C(c2ccc(Cl)cc2)C1 (stereo not drawn) [Example 555, 4-(4-{[2-(4-chlorophenyl)-4,4-dimethylcyclohex-1-en-1-yl]methyl}piperazin-1-yl)-N-[(6-{[(cis-4-hydroxy-4-methylcyclohexyl)methyl]amino}-5-nitropyridin-3-yl)sulfonyl]-2-(H-indazol-4-yloxy)benzamide]
Ki (GST-Bcl-2): < 0.01 nM

CC1(C)CCC(CN2CCN(c3ccc(C(=O)NS(=O)(=O)c4ccc(NC[C@H]5CN(C6COC6)CCO5)c([N+](=O)[O-])c4)c(Oc4cccc5[nH]ncc45)c3)CC2)=C(c2ccc(Cl)cc2)C1 [Example 540, 4-(4-{[2-(4-chlorophenyl)-4,4-dimethylcyclohex-1-en-1-yl]methyl}piperazin-1-yl)-2-(1H-indazol-4-yloxy)-N-{[3-nitro-4-({[(2S)-4-(oxetan-3-yl)morpholin-2-yl]methyl}amino)phenyl]sulfonyl}benzamide]
Ki (GST-Bcl-2): < 0.01 nM

CN1[C@@H]2CC[C@H]1CC(Nc1ccc(S(=O)(=O)NC(=O)c3ccc(N4CCN(CC5=C(c6ccc(Cl)cc6)CC(C)(C)CC5)CC4)cc3Oc3ccc4[nH]ccc4c3)cc1[N+](=O)[O-])C2 (stereo partly drawn) [Example 467, 4-(4-{[2-(4-chlorophenyl)-4,4-dimethylcyclohex-1-en-1-yl]methyl}piperazin-1-yl)-2-(1H-indol-5-yloxy)-N-[(4-{[(1R,5S)-8-methyl-8-azabicyclo[3.2.1]oct-3-yl]amino}-3-nitrophenyl)sulfonyl]benzamide]
Ki (GST-Bcl-2): 0.08 nM

COCC1(C)CCC(c2ccc(Cl)cc2)=C(CN2CCN(c3ccc(C(=O)NS(=O)(=O)c4cnc(OCC5CCC(C)(O)CC5)c(Cl)c4)c(Oc4cccc5[nH]ncc45)c3)CC2)C1 (stereo not drawn) [Example 539, N-({5-chloro-6-[(trans-4-hydroxy-4-methylcyclohexyl)methoxy]pyridin-3-yl}sulfonyl)-4-(4-{[2-(4-chlorophenyl)-5-(methoxymethyl)-5-methylcyclohex-1-en-1-yl]methyl}piperazin-1-yl)-2-(1H-indazol-4-yloxy)benzamide]
Ki (GST-Bcl-2): < 0.01 nM

— US9073855B2, “BCL-2 selective apoptosis-inducing agents for the treatment of cancer and immune diseases” (AbbVie Inc., priority 2008, dated 2015)
